Measured values as given in PMC8272121, “Synthesis and Evaluation of Chalcone-Quinoline Based Molecular Hybrids as Potential Anti-Malarial Agents” (Molecules, 2021).
pIC50: −log10 of the molar value. Converted amounts (≈) assume the structure as drawn. Where two headings read alike, the source gives them in different places.

Tests used:
[1] = test system: Chinese Hamster Ovary (CHO) mammalian cell line; test: Cytotoxicity MTT assay on CHO cells; type: cell-based; conditions: for pIC50: Cricetulus griseus, CHO, Chinese hamster ovarian cell line, MTT, 48 h; for SI (selectivity index): SI = IC50 (CHO)/IC50 (PfNF54)
Method: All the synthesized molecular hybrids (6–27) were evaluated for in vitro antiplasmodial activity against the drug-sensitive strain (NF54) of P. falciparum and for cytotoxicity against the Chinese Hamster Ovary (CHO) mammalian cell line using emetine as a reference drug. Aqueous solubility was determined at pH 6.5 (Table 2). Cytotoxicity assay. […] The reference standard, emetine, was prepared to 2 mg/mL in distilled water while stock solutions of test compounds were prepared to 20 mg/mL in 100% DMSO with the highest concentration of solvent to which the cells were exposed having no measurable effect on the cell viability. The initial concentration of the compounds and control was 100 μg/mL, which was serially diluted in complete medium with 10-fold dilutions to give six concentrations, the lowest being 0.001 μg/mL. Plates were incubated for 48 h with 100 μL of drug and 100 μL of cell suspension in each well and developed afterward by adding 25 μL of sterile MTT (Thermo Fisher Scientific) to each well, followed by 4 h of incubation in the dark. The plates were then centrifuged; the medium was aspirated, and 100 μL of DMSO was added to dissolve crystals before reading the absorbance at 540 nm. Data were analyzed, and the sigmoidal dose-response was derived using GraphPad Prism v 4.0 software (La Jolla). All experiments were performed for at least three independent biological repeats, each with technical triplicates.

[2] = Aqueous solubility, miniaturized shake flask method (HPLC-DAD); type: physicochemical; conditions: aqueous solution, aqueous buffer, thermodynamic from solid, pH 6.5, shake flask 20 h, 25 °C
Method: All the synthesized molecular hybrids (6-27) were evaluated for in vitro antiplasmodial activity against the drug-sensitive strain (NF54) of P. falciparum and for cytotoxicity against the Chinese Hamster Ovary (CHO) mammalian cell line using emetine as a reference drug. Aqueous solubility was determined at pH 6.5 (Table 2). Aqueous solubility. Water solubility was analyzed using a miniaturized shake flask method. Ten millimolar stock solutions of each of the compounds were used to prepare calibration standards (10-220 μM) in DMSO. The same 10 mM stock solutions were accurately dispensed in duplicate into 96-well plates, and the DMSO, dried down ([…],90 min, 37 °C). Thereafter, the samples were reconstituted (200 μM) in an aqueous solution and shaken (20 h, 25 °C). The solutions were analyzed by means of HPLC-DAD (Agilent1200 Rapid Resolution HPLC with a diode array detector). Best fit calibration curves were constructed using the calibration standards, which were used to determine the aqueous samples' solubility.

[3] = test system: P. falciparum NF54 (drug-sensitive strain); test: In vitro antiplasmodial assay (parasite lactate dehydrogenase), chloroquine-sensitive NF54 strain; type: cell-based, Plasmodium falciparum; conditions: sensitive (NF54) strain of P. falciparum, pLDH assay, 48 h, mean of ≥2 independent experiments, read-out: PfNF54 IC50
Method: All the synthesized molecular hybrids (6–27) were evaluated for in vitro antiplasmodial activity against the drug-sensitive strain (NF54) of P. falciparum and for cytotoxicity against the Chinese Hamster Ovary (CHO) mammalian cell line using emetine as a reference drug. Aqueous solubility was determined at pH 6.5 (Table 2).
In-vitro anti-plasmodium assay. Compounds were tested using parasite lactate dehydrogenase assay as a marker for parasite survival. The respective stock solutions of CQ diphosphate and test compounds were prepared by dissolving 2 mg/mL in distilled water (for CQ) and 100% DMSO for test compounds. The solutions were then stored at −20 °C, with further dilutions prepared on the day of the experiment. The cultures were synchronized in the ring stage as described previously using 15 mL of 5% (w/v) d-sorbitol in water. Synchronous cultures of PfNF54 (CQS) in the late trophozoite stage were prepared to 2% parasitemia and 2% hematocrit. […] Following incubation, 100 μL of MalStat reagent and 15 μL of resuspended culture were combined, followed by addition of 25 μL of nitro blue tetrazolium chloride (NBT). The plates were kept in the dark for about 10 min to fully develop, and absorbance was measured at 620 nm on a microplate reader. Raw data were exported to Microsoft Excel for dose-response analysis.

melting point	solubility at 20 h [2]	pIC50 ([3]; Plasmodium falciparum)	Compound	pIC50 [1]	SI (selectivity index) [1]	pIC50 [3]
200 to 204 °C	200 µM (≈ 80.8 µg/mL)	6.35	CC(=O)c1ccc(S(=O)(=O)NCCNc2ccnc3cc(Cl)ccc23)cc1 [Compound 4, 4-acetyl-N-(2-((7-chloroquinolin-4-yl)amino)ethyl)benzenesulfonamide]	4.58	58.4	–
181 to 183 °C	< 5 µM	6.32	CC(=O)c1ccc(S(=O)(=O)NCCCNc2ccnc3cc(Cl)ccc23)cc1 [Compound 5, 4-acetyl-N-(3-((7-chloroquinolin-4-yl)amino)propyl)benzenesulfonamide]	< 4.30	>104	–
210 to 212 °C	–	5.78	O=C(C=Cc1ccccc1)c1ccc(S(=O)(=O)NCCCNc2ccnc3cc(Cl)ccc23)cc1 [Compound 6, N-(3-((7-chloroquinolin-4-yl)amino)propyl)-4-cinnamoylbenzenesulfonamide]	< 4.30	>29	–
209 to 213 °C	130 µM (≈ 67.6 µg/mL)	6.43	Cc1ccc(/C=C/C(=O)c2ccc(S(=O)(=O)NCCCNc3ccnc4cc(Cl)ccc34)cc2)cc1 [Compound 7, (E)-N-(3-((7-chloroquinolin-4-yl)amino)propyl)-4-(3-(p-tolyl)acryloyl)benzenesulfonamide]	4.60	67.8	–
216 to 218 °C	< 5 µM	6.55	O=C(/C=C/c1ccc(F)cc1)c1ccc(S(=O)(=O)NCCCNc2ccnc3cc(Cl)ccc23)cc1 [Compound 9, (E)-N-(3-((7-chloroquinolin-4-yl)amino)propyl)-4-(3-(4-fluorophenyl)acryloyl)benzenesulfonamide]	4.83	52.5	–
223 to 225 °C	< 5 µM	6.27	O=C(/C=C/c1c(F)cccc1F)c1ccc(S(=O)(=O)NCCCNc2ccnc3cc(Cl)ccc23)cc1 [Compound 10, (E)-N-(3-((7-chloroquinolin-4-yl)amino)propyl)-4-(3-(2,6-difluorophenyl)acryloyl)benzenesulfonamide]	4.56	51.1	–
212 to 214 °C	< 5 µM	5.59	O=C(/C=C/c1ccc(F)c(F)c1)c1ccc(S(=O)(=O)NCCCNc2ccnc3cc(Cl)ccc23)cc1 [Compound 13, (E)-N-(3-((7-chloroquinolin-4-yl)amino)propyl)-4-(3-(3,4-difluorophenyl)acryloyl)benzenesulfonamide]	< 3.52	>116	–
222 to 224 °C	–	6.49	COc1ccc(/C=C/C(=O)c2ccc(S(=O)(=O)NCCCNc3ccnc4cc(Cl)ccc34)cc2)cc1OC [Compound 14, (E)-N-(3-((7-chloroquinolin-4-yl)amino)propyl)-4-(3-(3,4-dimethoxyphenyl)acryloyl)benzenesulfonamide]	4.36	135.6	–
223 to 225 °C	5 µM (≈ 2.62 µg/mL)	6.07	O=C(/C=C/c1ccccc1F)c1ccc(S(=O)(=O)NCCCNc2ccnc3cc(Cl)ccc23)cc1 [Compound 15, (E)-N-(3-((7-chloroquinolin-4-yl)amino)propyl)-4-(3-(2-fluorophenyl)acryloyl)benzenesulfonamide]	4.34	52.9	–
197 to 200 °C	15 µM (≈ 8.94 µg/mL)	6.24	COc1cc(/C=C/C(=O)c2ccc(S(=O)(=O)NCCCNc3ccnc4cc(Cl)ccc34)cc2)cc(OC)c1OC [Compound 16, (E)-N-(3-((7-chloroquinolin-4-yl)amino)propyl)-4-(3-(3,4,5-trimethoxyphenyl)acryloyl)benzenesulfonamide]	4.65	39.0	–
222 to 225 °C	185 µM (≈ 96.6 µg/mL)	6.31	COc1ccc(/C=C/C(=O)c2ccc(S(=O)(=O)NCCNc3ccnc4cc(Cl)ccc34)cc2)cc1 [Compound 17, (E)-N-(2-((7-chloroquinolin-4-yl)amino)ethyl)-4-(3-(4-methoxyphenyl)acryloyl)benzenesulfonamide]	4.76	35.7	–
216 to 218 °C	130 µM (≈ 70.5 µg/mL)	6.30	O=C(/C=C/c1ccc(F)cc1F)c1ccc(S(=O)(=O)NCCCNc2ccnc3cc(Cl)ccc23)cc1 [Compound 18, (E)-N-(3-((7-chloroquinolin-4-yl)amino)propyl)-4-(3-(2,4-difluorophenyl)acryloyl)benzenesulfonamide]	4.65	45.2	–
223 to 225 °C	–	6.48	COc1ccc(/C=C/C(=O)c2ccc(S(=O)(=O)NCCNc3ccnc4cc(Cl)ccc34)cc2)cc1OC [Compound 19, (E)-N-(2-((7-chloroquinolin-4-yl)amino)ethyl)-4-(3-(3,4-dimethoxyphenyl)acryloyl)benzenesulfonamide]	4.35	136.7	–
219 to 221 °C	–	6.10	O=C(/C=C/c1cc(F)ccc1F)c1ccc(S(=O)(=O)NCCCNc2ccnc3cc(Cl)ccc23)cc1 [Compound 20, (E)-N-(3-((7-chloroquinolin-4-yl)amino)propyl)-4-(3-(2,5-difluorophenyl)acryloyl)benzenesulfonamide]	4.36	55.3	–
222 to 224 °C	200 µM (≈ 99.2 µg/mL)	5.35	O=C(/C=C/c1ccco1)c1ccc(S(=O)(=O)NCCCNc2ccnc3cc(Cl)ccc23)cc1 [Compound 21, (E)-N-(3-((7-chloroquinolin-4-yl)amino)propyl)-4-(3-(furan-2-yl)acryloyl)benzenesulfonamide]	< 4.30	>11	–
184 to 187 °C	190 µM (≈ 96.1 µg/mL)	6.41	Cc1ccc(/C=C/C(=O)c2ccc(S(=O)(=O)NCCNc3ccnc4cc(Cl)ccc34)cc2)cc1 [Compound 22, (E)-N-(2-((7-chloroquinolin-4-yl)amino)ethyl)-4-(3-(p-tolyl)acryloyl)benzenesulfonamide]	4.60	63.8	–
223 to 225 °C	–	6.29	O=C(/C=C/c1ccc(OC(F)(F)F)cc1)c1ccc(S(=O)(=O)NCCCNc2ccnc3cc(Cl)ccc23)cc1 [Compound 27, (E)-N-(3-((7-chloroquinolin-4-yl)amino)propyl)-4-(3-(4-(trifluoromethoxy)phenyl)acryloyl)benzenesulfonamide]	4.36	86.3	–
–	–	–	CC[C@H]1CN2CCc3cc(OC)c(OC)cc3[C@@H]2C[C@@H]1C[C@H]1NCCc2cc(OC)c(OC)cc21 [Emetine, emetine, reference compound]	8.47	–	–
–	–	–	(E)-N-(2-((7-chloroquinolin-4-yl)amino)ethyl)-4-(3-ferrocenyl)acryloyl)benzenesulfonamide [Compound 23]	–	–	5.82
